Measurements: PMC11638965, “Leveraging Dual-Ligase Recruitment to Enhance Protein Degradation via a Heterotrivalent Proteolysis Targeting Chimera” (Journal of the American Chemical Society, 2024)
Like-named read-outs stand apart in the source and are kept apart here.

Legend:
BRD2 = biological target: T1, BRD2 (Homo sapiens, UniProt P25440); test: Live cell kinetic HiBiT degradation assay, HiBiT-BRD2 HEK293 cells; format: cell-based; conditions: HiBiT-BRD2 CRISPR knock-in HEK293 cells, live cell kinetic degradation, 24 h; read-out: Dmax 50 BRD2
T1 construct: HiBiT, is appended to the N-terminus of endogenous BRD2, BRD3, and BRD4; endogenous in cells
Procedure: (§1) HEK293 HiBiT-BRD2 (LgBiT stable), HEK293 HiBiT-BRD3 (LgBiT stable), and HEK293 HiBiT-BRD4 (LgBiT stable) were created using CRISPR/Cas9 to insert at HiBiT tag at the N-terminal genomic loci of BRD2, BRD3, or BRD4 in a cell line stably expressing LgBiT protein as described previously.[23]
(§2) For kinetic degradation experiments, HEK293 HiBiT-BRD2, 3, or 4 (LgBiT stable) cells and HEK293 HiBiT-BRD4 (LgBiT) CRBN KO and VHL KO cells were plated at 20,000 cells/well in DMEM +10% FBS in white 96-well tissue culture plates and allowed to adhere overnight. The next day, media was removed and 90 μL of prewarmed CO2-independent medium (Gibco) containing Endurazine (Promega) at a 1:100 dilution from stock was added. Plates were incubated at 37 °C for 3 h to allow luminescence to equilibrate. A threefold dilution series of each PROTAC at 10x the desired final concentration was prepared (with the amount of DMSO in each treatment condition kept constant). After luminescence equilibration, a preread luminescence measurement was taken (prior to compound addition) to allow for baseline normalization to account for possible plating differences. Cells were then treated with 10 μL of the prepared PROTAC dilution series (in triplicate or quadruplicate). Treated plates were placed in a GloMax Discover luminometer (Promega) prewarmed to 37 °C and luminescence measurements were obtained every 7 min for 24 h. Kinetic degradation plots were obtained by first normalizing time course luminescence readings in each well to the preread measurement, then to the average value of the DMSO only control at each time point. Data was analyzed using GraphPad Prism (version 8) and excel. Dmax values were identified as the lowest luminescence reading in each well. Rate constant values were calculated using a one phase exponential decay Y = (Y0-Plateau) e(K*^X) + Plateau using Prism (Y0 constrained to 1). Dmax 50 values were calculated by plotting Dmax as a function of concentration, then fitting plots using the following equation: [drawing 1] to determine IC50.

BRD3 = biological target: T2, BRD3 (Homo sapiens, UniProt Q15059); test: Live cell kinetic HiBiT degradation assay, HiBiT-BRD3 HEK293 cells; format: cell-based; conditions: HiBiT-BRD3 CRISPR knock-in HEK293 cells, live cell kinetic degradation, 24 h; read-out: Dmax 50 BRD3
T2 construct: HiBiT, is appended to the N-terminus of endogenous BRD2, BRD3, and BRD4; endogenous in cells
Procedure: as §1, §2

RKO CRBN KO cells = test: Cell viability assay (CellTiter-Glo); format: cell-based, human
Procedure: (§3) RKO WT, VHL KO, CRBN KO and CRBN/VHL dKO cells were cultured in Dulbecco’s modified Eagle’s medium supplemented with 10% FCS and 1% penicillin–streptomycin. RKO CRBN KO and VHL KO were generated previously.[45] RKO CRBN/VHL dKO cells were generated by transiently expressing pSpCas9(BB)-2A-GFP (PX458) (Addgene 48138) loaded with a short guide RNA (sgRNA) targeting VHL (Fwd: […], Rev: […]) in RKO CRBN KO cells. Clones were single cell seeded and checked for VHL and CRBN double deletion via Western blot or PCR on genomic DNA (gDNA).
(§4) Cells were seeded in 96-well plates at a cell density of 3750 cells per well and treated for 3 days with DMSO or drug at ten √10 serial diluted concentrations. Starting concentration for all drugs was 10 μM, and each treatment was performed in biological triplicates. Cell viability was assessed using the CellTiter-Glo assay (CellTiter-Glo Luminescent Cell Viability Assay, Promega G7573) according to manufacturer instructions. Luminescence signal was measured on a Multilabel Plate Reader Platform Victor X3 model 2030 (PerkinElmer). Survival curves and EC50 values were determined using GraphPad Prism v.10.0.3 by fitting a nonlinear regression to the log10-transformed drug concentration and the relative viability after normalization of each data point to the mean luminescence of the lowest drug concentration.

RKO CRBN/VHL dKO cells = test: Cell viability assay (CellTiter-Glo); format: cell-based, human; conditions: read-out: EC50 RKO CRBN/VHL dKO
Procedure: as §3, §4

RKO VHL KO cells = test: Cell viability assay (CellTiter-Glo); format: cell-based, human
Procedure: as §3, §4

BRD4 = BRD4 (Homo sapiens, UniProt O60885); test: Live cell kinetic HiBiT degradation assay, HiBiT-BRD4 HEK293 cells (parental, CRBN KO, VHL KO); format: cell-based; conditions: for fold drop in BRD4 degradation potency (Dmax 50) when CRBN recruitment was outcompeted by pomalidomide: 20 μM pomalidomide vs vehicle, HiBiT-BRD4 HEK293 cells; for EC50: HiBiT-BRD4 CRISPR knock-in HEK293 cells, live cell kinetic degradation, 24 h, read-out: Dmax 50 BRD4
Procedure: as §1, §2
HiBiT-BRD4 (LgBiT stable) HEK293 cells (Promega) were used to generate both VHL KO HiBiT-BRD4 (LgBiT stable) and CRBN KO HiBiT-BRD4 (LgBiT stable) cell lines. For VHL, gRNAs targeting exon 1 ([…]) and exon 2 ([…]) and for CRBN, gRNAs targeting exon 3 ([…]) and exon 6 ([…]) were purchased from IDT DNA (Table 5). For each gRNA, tracrRNA/crRNA duplexes were formed by combining 10 μL of 100 μM Alt-R […] (IDT), 100 μM Alt-R crRNA (IDT) and heating at 95C for 5 min, then were allowed to cool to room temp for 20 min. RNPs were then formed by combining 75 pmol Cas9 (IDT) with 2.4 μL total of prepared tracrRNA/crRNA complex (1.2 μL for each gRNA targeting each exon). Cells were then trypsinized and resuspended at 10,000,000 cells/mL in 1 mL of Mirus Ingenio electroporation solution. Three μL of 100 μM electroporation enhancer (Mirus) was added, along with 3 μL of RNP solution. Cells were electroporated in 2 mm cuvettes using a BioRad system (190 V, 950 μF, infinite resistance) and were then plated in a T75 flask in full growth medium to allow for recovery. After recovery from electroporation, knockout pools were sorted for single cells in 96-well tissue culture treated plates. Clonal populations which expanded from single cells were then screened for loss of function of VHL by treating with MZ1, or loss of function of CRBN by treating with dBET6, using a HiBiT-BRD4 luminescent readout assay. Genomic DNA isolated from candidate clones was then PCR-amplified (Table of primers below), Gibson-assembled into a pF1A plasmid backbone, transformed into E. coli., and then Sanger sequenced to confirm presence of indels in the targeted exons. […] VHL exon 3 carried a 19 bp deletion on one allele, and a 1 bp insertion on the other allele, both occurring after the premature stop codon in exon 1.

RKO WT cells = test: cells; format: cell-based, human
Procedure: as §3
as §4, with “Starting concentration for all drugs was 10 μM, and each treatment was performed in biological triplicates.” left out

KBM7 cells = test: Cell viability assay (CellTiter-Glo); format: cell-based, human; conditions: WT KBM7, 5.12 pM to 10 uM, n = 3 (Table S4)
Procedure: as §4, with “[…],” for “3750 cells per well and treated for 3 days with DMSO or drug at ten √10 serial diluted concentrations. Starting concentration for all drugs was 10 μM,”

K562 cells = test: Cell viability assay (CellTiter-Glo); format: cell-based, human; conditions: WT K562, 5.12 pM to 10 uM, n = 3 (Table S4)
Procedure: as §4, with “[…],” for “3750 cells per well and treated for 3 days with DMSO or drug at ten √10 serial diluted concentrations. Starting concentration for all drugs was 10 μM,”

[1] = Homo sapiens, 72 h, 316 pM to 10 μM, 3 days, n = 6 (Figure 3C, Table S1)
[2] = Homo sapiens, 72 h, 316 pM to 10 μM, 3 days, n = 6 (Figure 3C, Table S1), read-out: EC50 RKO WT

T1 sequence (P25440 whole entry): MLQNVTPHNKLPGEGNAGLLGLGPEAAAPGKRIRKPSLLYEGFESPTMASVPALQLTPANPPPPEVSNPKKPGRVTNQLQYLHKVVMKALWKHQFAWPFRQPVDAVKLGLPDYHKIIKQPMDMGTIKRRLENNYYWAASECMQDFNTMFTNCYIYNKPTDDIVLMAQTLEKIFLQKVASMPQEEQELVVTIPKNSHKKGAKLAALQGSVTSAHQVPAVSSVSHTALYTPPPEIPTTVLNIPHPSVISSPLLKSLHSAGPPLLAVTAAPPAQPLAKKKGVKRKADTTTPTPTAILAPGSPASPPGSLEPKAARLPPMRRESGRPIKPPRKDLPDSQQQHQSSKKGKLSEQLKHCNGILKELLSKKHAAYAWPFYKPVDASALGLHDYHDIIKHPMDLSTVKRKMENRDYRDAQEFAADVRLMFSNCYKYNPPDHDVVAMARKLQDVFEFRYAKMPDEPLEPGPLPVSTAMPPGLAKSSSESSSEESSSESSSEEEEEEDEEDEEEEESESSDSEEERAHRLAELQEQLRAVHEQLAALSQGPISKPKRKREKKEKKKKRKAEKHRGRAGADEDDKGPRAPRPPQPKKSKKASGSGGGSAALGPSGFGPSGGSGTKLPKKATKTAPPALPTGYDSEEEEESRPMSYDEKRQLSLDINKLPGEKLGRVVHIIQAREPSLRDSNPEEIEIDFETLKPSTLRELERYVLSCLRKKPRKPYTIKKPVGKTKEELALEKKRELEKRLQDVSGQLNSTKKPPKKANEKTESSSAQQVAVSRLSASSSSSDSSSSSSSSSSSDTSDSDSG
T2 sequence (Q15059 whole entry): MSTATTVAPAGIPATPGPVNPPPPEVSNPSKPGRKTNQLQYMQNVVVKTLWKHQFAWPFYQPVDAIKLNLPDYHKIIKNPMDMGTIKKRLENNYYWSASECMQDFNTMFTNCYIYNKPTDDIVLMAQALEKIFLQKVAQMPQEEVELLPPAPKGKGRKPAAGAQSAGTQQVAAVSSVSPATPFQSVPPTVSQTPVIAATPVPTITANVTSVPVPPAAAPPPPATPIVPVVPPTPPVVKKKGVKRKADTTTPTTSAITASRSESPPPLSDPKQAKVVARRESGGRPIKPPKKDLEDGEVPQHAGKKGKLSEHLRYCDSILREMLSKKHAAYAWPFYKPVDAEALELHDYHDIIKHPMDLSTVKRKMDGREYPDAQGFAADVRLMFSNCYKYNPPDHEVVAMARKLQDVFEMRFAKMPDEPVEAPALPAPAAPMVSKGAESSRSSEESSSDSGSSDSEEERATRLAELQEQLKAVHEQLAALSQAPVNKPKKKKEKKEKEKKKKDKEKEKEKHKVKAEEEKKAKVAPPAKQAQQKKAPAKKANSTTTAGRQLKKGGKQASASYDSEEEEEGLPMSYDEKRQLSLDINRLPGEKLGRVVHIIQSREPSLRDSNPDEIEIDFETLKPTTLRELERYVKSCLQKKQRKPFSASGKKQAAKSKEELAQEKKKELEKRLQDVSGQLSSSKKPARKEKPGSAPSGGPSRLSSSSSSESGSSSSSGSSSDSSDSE

Row | Compound | DC50 (BRD2) | DC50 (BRD3) | EC50 (RKO CRBN KO cells; [1]) | EC50 (RKO CRBN/VHL dKO cells; [1]) | EC50 (RKO VHL KO cells; [1]) | fold drop in BRD4 degradation potency (Dmax 50) when CRBN recruitment was outcompeted by pomalidomide (BRD4) | EC50 (BRD4) | EC50 (RKO WT cells; [2]) | further results
1 | Cc1ncsc1-c1ccc(CNC(=O)[C@@H]2C[C@@H](O)CN2C(=O)[C@@H](NC(=O)COCC(C)(COCCOCCOCCNC(=O)C[C@@H]2N=C(c3ccc(Cl)cc3)c3c(sc(C)c3C)-n3c(C)nnc32)COCCOCCOCCNc2cccc3c2C(=O)N(C2CCC(=O)NC2=O)C3=O)C(C)(C)C)cc1 (stereo partly drawn) [MN666 (1), (2S,4R)-1-((20S)-20-(tert-Butyl)-1-((S)-4-(4-chlorophenyl)-2,3,9-trimethyl-6H-thieno[3,2-f][1,2,4]triazolo[4,3-a][1,4]diazepin-6-yl)-14-((2-(2-(2-((2-(2,6-dioxopiperidin-3-yl)-1,3-dioxoisoindolin-4-yl)amino)ethoxy)ethoxy)ethoxy)methyl)-14-methyl-2,18-dioxo-6,9,12,16-tetraoxa-3,19-diazahenicosan-21-oyl)-4-hydroxy-N-(4-(4-methylthiazol-5-yl)benzyl)pyrrolidine-2-carboxamide] | 84 nM | 23 nM | 703 nM | 1580 nM | 336 nM | 5.3 fold | 37 nM | 720 nM | 
2 | Cc1ncsc1-c1ccc(CNC(=O)[C@@H]2C[C@@H](O)CN2C(=O)[C@@H](NC(=O)COCC(C)(COCCOCCNC(=O)C[C@@H]2N=C(c3ccc(Cl)cc3)c3c(sc(C)c3C)-n3c(C)nnc32)COCCOCCNc2cccc3c2C(=O)N(C2CCC(=O)NC2=O)C3=O)C(C)(C)C)cc1 (stereo partly drawn) [MN675 (2), (2S,4R)-1-((17S)-17-(tert-Butyl)-1-((S)-4-(4-chlorophenyl)-2,3,9-trimethyl-6H-thieno[3,2-f][1,2,4]triazolo[4,3-a][1,4]diazepin-6-yl)-11-((2-(2-((2-(2,6-dioxopiperidin-3-yl)-1,3-dioxoisoindolin-4-yl)amino)ethoxy)ethoxy)methyl)-11-methyl-2,15-dioxo-6,9,13-trioxa-3,16-diazaoctadecan-18-oyl)-4-hydroxy-N-(4-(4-methylthiazol-5-yl)benzyl)pyrrolidine-2-carboxamide] | 156 nM | 21 nM | 601 nM | 2060 nM | 870 nM | 3.6 fold | 55 nM | 489 nM | EC50 (KBM7 cells; Homo sapiens, KBM-7): 175 nM; EC50 (K562 cells; Homo sapiens): 327 nM; EC50 (RKO WT cells; Homo sapiens, WT RKO, 316 pM to 10 μM, n = 3 (Table S4), read-out: EC50 RKO): 445 nM
3 | Cc1sc2c(c1C)C(c1ccc(Cl)cc1)=N[C@@H](CC(=O)NCCCCCCCCNC(=O)COc1cccc3c1C(=O)N(C1CCC(=O)NC1=O)C3=O)c1nnc(C)n1-2 (some centres unmarked) [dBET6, reference compound] |  |  |  |  |  |  |  |  | EC50 (KBM7 cells): 3.7 nM; EC50 (K562 cells): 6.4 nM; EC50 (RKO CRBN KO cells; Figure 10 experiment): > 10000 nM; EC50 (RKO CRBN/VHL dKO cells; both VHL and CRBN knocked out (Figure 3C)): > 10000 nM; EC50 (RKO VHL KO cells; 316 pM to 10 μM, 3 days, n = 6 (Figure 3C, Table S1)): 233 nM; EC50 (RKO VHL KO cells; 500 pM to 10 μM, 3 days (Figure 10, Table S6)): 291 nM; EC50 (RKO WT cells; 316 pM to 10 μM, 3 days, n = 6 (Figure 3C, Table S1), read-out: EC50 RKO WT): 281 nM; EC50 (RKO WT cells; 500 pM to 10 μM, 3 days (Figure 10, Table S6), read-out: EC50 RKO WT): 256 nM; EC50 (RKO WT cells; RKO WT, 316 pM to 10 μM, n = 6, combination: dBET6 and MZ1 each from 5 μM (Table S7), read-out: EC50 RKO): 106 nM; EC50 (RKO WT cells; WT RKO, 316 pM to 10 μM, n = 3 (Table S4), read-out: EC50 RKO): 272 nM
